Laboratory results as given in patent US11001808B2, “Immortalization of epithelial cells and methods of use” (Georgetown University, priority 2010, dated 2021).
“Also recorded” adds a separate entry of the source.

How the values were obtained:
[1] = system: human prostate cells; test: Proliferation in serum-containing F medium with Rho-Rock-Myosin pathway inhibitors, Crystal Violet staining (FIG. 23); format: cell-based; settings: about 5000 cells in 6-well plates, 8 days, Y-27632 5 μM, HA-1100 20 μM, GSK429286 0.1 μM, Fasudil 30 μM, C3 transferase 2 μg/ml, Blebbistatin 5 μM
Experimental: FIG. 23 depicts that inhibition of the Rho-Rock-Myosin pathway prevents cells from terminally differentiating, allowing the cells to proliferate in serum-containing medium. Normally, serum-containing medium induces terminal differentiation of primary epithelial cells and, in turn, causes senescence in culture. Approximately 5000 human prostate cells were plated in 6-well plates in F medium with addition of Rock inhibitors Y-27632 (5 μM), HA-1100 (20 μM), GSK429286 (0.1 μM), Fasudil (30 μM), a Rho inhibitor (C3 transferase, 2 μg/ml), or a Mysin inihibitor (-Blebbistatin, 5 μM). Eight days later, cells were fixed and stained with 0.05% Crystal Violet.
As used herein, inhibiting ROCK can mean to reduce the activity, function or expression of at least one of ROCK1 or ROCK2. […] In general, ROCK phosphorylates LIM kinase and myosin light chain (MLC) phosphatase after being activated through binding of GTP-bound Rho. One embodiment of the present invention thus involves blocking the upstream pathway of ROCK1 and/or ROCK2, for example GTP-bound Rho, such that ROCK1 and/or ROCK2 is not activated or its activity is reduced over untreated cells. Other upstream effectors include but are not limited to, integrins, growth factor receptors, including but not limited to, TGF-beta and EGFR, cadherins, G protein coupled receptors and the like. Another embodiment of the present invention thus involves blocking the activity, function or expression of downstream effector molecules of activated ROCK1 and/or ROCK2 such that ROCK1 and/or ROCK2 can not propagate any signal or can only propagate a reduced signal over untreated cells. Downstream effectors include but are not limited to, Myosin phosphatase-targeting protein (MYPT), vimentin, LIMK, Myosin light chain kinase, NHE1, cofilin, Myosin II and the like. […] Upstream or downstream inhibition of ROCK, in place of direct ROCK inhibition and in conjunction with the other culture conditions described and required herein, may or may not generate conditionally immortalized NKE cells.

[2] = system: human primary prostate cells; test: In vitro growth curves under various growth conditions (FIG. 2A); format: cell-based
Experimental: (§1) FIGS. 2A-2B depict in vitro growth curves of human primary prostate cells and human primary mammary cells under various growth conditions. (A) PrEGM is a synthetic commercial prostate epithelial cell growth medium; (B) MEGM is a synthetic commercial mammary epithelial cell medium; Feeders are J2 mouse fibroblasts that have been irradiated or treated with mitomycin C; ROCK inhibitor is Y27632 at a concentration of 10 μM that was applied to the cells at initial plating and thereafter. The y-axis is population doublings and the x-axis is number of days. Media was changed every 3 days for all groups.
(§2) Primary HMECs and HPECs were grown under the four different conditions noted in FIG. 2. […] Feeders were the J2 mouse fibroblasts that have been gamma irradiated. The ROCK inhibitor was Y27632 at a concentration of 10 μM that was applied to the cells at initial plating and thereafter. The y-axis is population doublings and the x-axis is number of days. Media was changed every 2-3 days for all groups.
(§3) Cells grown in the presence of the feeder cells in F medium without ROCK inhibitor had about the same growth rate, i.e., the slope of the lines was about the same, but the cells grown in the presence of feeder cells eventually stopped growing.

[3] = system: human primary mammary cells; test: In vitro growth curves under various growth conditions (FIG. 2B); format: cell-based
Experimental: as §1, §2, §3

[4] = system: airway epithelial cells; settings: Moore et al., 2004; cited from earlier work
[5] = system: recurrent papillomatosis of the larynx; settings: patient history: interferon 1996-2010, Methotrexate 2001-03, intralesional Cidofovir 2007-2010, intralesional Avastin 2010; cited from earlier work
[6] = system: HPV-11-containing tumor cells from the patient; test: Cell viability curves (CellTiter-Glo Luminescent Cell Viability Assay), patient's cultured tumor cells; format: cell-based, human; settings: for sensitivity of tumor cells compared with normal lung cells: tumor versus normal lung cells of the same patient, 24 hours
Experimental: (§4) Normal and tumor cells were treated with Cidofovir, Vorinostat or DHA at indicated concentration for 24 hours. Cell viabilities were measured using CellTiter-Glo® Luminescent Cell Viability Assay (Promega)
(§5) There is no data in the literature, however, analyzing the effect of these inhibitors on cells containing low-risk HPVs, because there are no cell lines established that contain HPV-6 or HPV-11. […] More importantly, this cell line was used to evaluate the sensitivity to the above inhibitors and to compare it to the sensitivity of normal lung cells isolated from the same patient (FIG. 17).
(§6) Cidovovir is the most common drug used for treating RRP.

[7] = system: normal lung cells; test: Cell viability curves (CellTiter-Glo Luminescent Cell Viability Assay), normal cells of the same patient; settings: treated 24 hours, cell type of the LD50 not stated, taken as normal lung cells from context
Experimental: as §4, §5, §6

[8] = system: recurrent respiratory papillomatosis; test: Vorinostat therapy of the patient, follow-up by CT scan; format: in vivo, human; settings: one patient, 400 mg/daily, 4 week cycle (3 weeks on, 1 week off)
Description: A patient with recurrent papillomatosis of the larynx for 16 years was chosen for this study. The disease progressively involved not only the larynx, but had spread to the upper airway (trachea and bronchi) and recently into the lung parenchyma. The patient had had more than 350 surgeries. Besides surgeries, multiple treatments had failed, including interferon treatment (1996-2010), Methotrexate (2001-03), intralesional Cidofovir (2007-2010), and intralesional Avastin (2010). […] By October 2010, the size each lung lesion examined was increasing. During the last surgical intervention, a wedge resection of the right upper lobe was performed to remove metastatic tumor. […] Koilocytotic changes in such tumors are an indication that the tumor is producing infectious HPV. However, at the time of intervention, the type of HPV involved in this tumor had not been identified. Since the tumor had not responded to several different treatment modalities, it was also unclear how the patient would be treated following surgery.
Based on the in vitro sensitivity data, the patient was placed on Vorinostat therapy in January of 2011. The therapy consisted 4 week cycle (3 weeks on, 1 week off) of Vorinostat at 400 mg/daily. […] Thus, the use of the cell culture methods of the present invention were critical in determining a response profile of the abnormal cells, which enabled the identification of at least two chemotherapeutic agents that might be useful for treating this patient's tumors. Using the cell culture methods of the present invention, the response profile, including the genetic analysis and the therapeutic index, was generated within one week of biopsy.

[9] = system: cervical cancer cells that express the high-risk HPVs; settings: previous studies; cited from earlier work
[10] = F medium, irradiated J2 feeders, 10 μM from initial plating

## C[C@@H](N)[C@H]1CC[C@H](C(=O)Nc2ccncc2)CC1 [Y-27632]
[1]
  suppression of serum-induced differentiation / proliferation in serum-containing medium: able to suppress cell differentiation by serum
[2]; [10]
  growth (population doublings) with feeder cells in F medium plus ROCK inhibitor: have continued to grow
[2]; PrEGM synthetic serum-free medium, 10 μM, no feeders
  growth (population doublings) on addition of ROCK inhibitor to synthetic medium: did not affect growth
[3]; [10]
  growth (population doublings) with feeder cells in F medium plus ROCK inhibitor: have continued to grow
[3]; MEGM synthetic serum-free medium, 10 μM, no feeders
  growth (population doublings) on addition of ROCK inhibitor to synthetic medium: did not affect growth
[4]
  effect of inhibition on airway epithelial cells: induces membrane ruffling, loss of actin stress fibers and apoptosis

## O=S(=O)(c1cccc2c(O)nccc12)N1CCCNCC1 [HA-1100]
[1]
  suppression of serum-induced differentiation / proliferation in serum-containing medium: able to suppress cell differentiation by serum

## Cc1ccc2c(c1)C(=O)C1(O)CCN(c3ccccc3)C1=N2 (stereo not shown) [Blebbistatin]
[1]
  suppression of serum-induced differentiation / proliferation in serum-containing medium: able to suppress cell differentiation by serum
[1]; listed as blebbistatin
  suppression of serum-induced differentiation / proliferation in serum-containing medium: allow the cells to bypass differentiation and allow proliferation in vitro

## Avastin: intralesional Avastin, earlier treatment of the patient
[5]
  outcome of earlier treatment: failed

## CC1=C(C(=O)Nc2cc3cn[nH]c3cc2F)C(c2ccc(C(F)(F)F)cc2)CC(=O)N1 (stereo not shown) [GSK429286]
[1]
  suppression of serum-induced differentiation / proliferation in serum-containing medium: able to suppress cell differentiation by serum

## O=C(CCCCCCC(=O)Nc1ccccc1)NO [SAHA]
[6]
  sensitivity of tumor cells compared with normal lung cells: approximately 100 fold
[7]
  LD50: approximately 200 μM
[8]
  lesions in more recent CT scan: all lesions had stabilized
  lesions in subsequent CT scan: no new lesions were identified, smaller lesions were shrinking, and some larger lesions were also decreasing in size
  side effects: no major side effects had been observed

## O=S(=O)(c1cccc2cnccc12)N1CCCNCC1 [Fasudil]
[1]
  suppression of serum-induced differentiation / proliferation in serum-containing medium: able to suppress cell differentiation by serum
[4]
  effect of inhibition on airway epithelial cells: induces membrane ruffling, loss of actin stress fibers and apoptosis

## C[C@H]1[C@@H](O)O[C@@H]2O[C@@]3(C)CC[C@H]4[C@H](C)CC[C@@H]1[C@@]24OO3 [DHA]
[6]
  sensitivity of tumor cells compared with normal lung cells: approximately 100 fold
[9]
  killing of cervical cancer cells: able to efficiently kill

## Nc1ccn(C[C@@H](CO)OCP(=O)(O)O)c(=O)n1 [Cidofovir]
[6]; very high concentrations (50-200 μM), 24 hours (FIG. 17A)
  effect on cell viability in vitro: completely ineffective
[5]
  outcome of earlier treatment: failed

## C3 transferase
[1]
  suppression of serum-induced differentiation / proliferation in serum-containing medium: able to suppress cell differentiation by serum; also recorded: allow the cells to bypass differentiation and allow proliferation in vitro

## C[C@H]1[C@H](OC(=O)CCC(=O)O)O[C@@H]2O[C@@]3(C)CC[C@H]4[C@H](C)CC[C@@H]1[C@@]24OO3 [artesunate]
[9]
  killing of cervical cancer cells: able to efficiently kill

## CN(Cc1cnc2nc(N)nc(N)c2n1)c1ccc(C(=O)N[C@@H](CCC(=O)O)C(=O)O)cc1 [Methotrexate]
[5]
  outcome of earlier treatment: failed
